In patent publication US20090297510A1, “INHIBITION OF CALPAIN REDUCES ALLERGIC INFLAMMATION” (priority 2008, published 2009):

Key:
[1] = test system: Balb/c mice; assay: FcεRI-mediated passive cutaneous anaphylaxis, Evans blue dye extravasation in ear; type: in vivo; conditions: 0.965 mg/mouse intraperitoneal, 1 h before DNP-BSA challenge i.v.; ears collected 30 min later; control DMSO; FIG. 2
Method: In particular, mice were injected locally in the ear tissue with anti-dinitrophenol (DNP) IgE (20 ng/mouse) a day before. Mice in the treatment group received 0.965 mg/mouse of calpain inhibitor III via intraperitoneal injection. Control group received diluent dimethyl sulfoxide (DMSO) only. One hour later, animals were injected with 100 μg of DNP-BSA in 200 μl 0.5% Evan blue dye via tail vein injection. Thirty minutes later, ear tissues were collected. Evan blue dyes were extracted and measure at 620 nm.
To examine the role of calpain in FcεRI-mediated passive cutaneous anaphylaxis in mice, dorsal sides of the ears of Balb/c mice were injected intradermally with 20 ng anti-DNP IgE (both left ears) in a 20 μl volume using a 30-gauge needle. After 24 h mice in the treatment group received 0.965 mg/mouse of calpain inhibitor III via intraperitoneal injection. Control group received diluent dimethyl sulfoxide (DMSO) only. […] For quantitation of Evans blue dye extravasation as a measure of anaphylaxis associated vascular hyperpermeability, 8-mm skin specimens were removed from the ears of mice, minced in 2 ml formamide, and incubated at 80° C. for 2 h in water bath to extract the dye. The absorbance of the extracted dye was read at 620 nm.

[2] = test system: JNK phosphorylation in mast cells; assay: Western blot of IgE-dependent kinase phosphorylation in mast cell lysates; type: cell-based, mouse; conditions: BMMC, inhibitor or DMSO 1 hour, then TNP-BSA 10 ng/ml for various times, FIG. 4
Method: In particular, mouse bone marrow-derived mast cells (60 million) were sensitized overnight with 90 ml fresh culture medium and 30 ml TIB141-conditioned medium enriched in IgE directed against trinitrophenyl (TNP). Cells were then washed twice with RPMI 1640 and resuspended in 10% FBS-RPMI 1640 at 1 million cells/ml. Five ml of cells were aliquoted for each treatment. Calpain inhibitor 3 (CI3) or DMSO was added and to the sample and incubated at 37° C. in a 5% CO2 incubator for 1 hour. Then, TNP-BSA (10 ng/ml) was added to stimulate mast cells for various times as indicated. After incubation, cells were transferred to a 50 ml tube, and centrifuged at 500×g for 5 min at 4° C. Supernatants were discarded and cell pellets were kept on ice. Cell pellets were lysed with 30 μl ice-cold RIPA lysis buffer for each condition. Lysates were transferred to 1.5 ml tubes, vortexed for 10 seconds at the highest setting, pipetted 20 times, vortexed for 10 seconds again, and incubated for 20 minutes on ice. Subsequently, lysates were centrifuged at 15,000×g for 10 minutes in a cold room. Supernatants were then transferred to new tubes and used for Western blotting with antibodies to phospho-IκB, total IκB, phospho-p38, total p38, phospho-JNK, total JNK, phospho-ERK, total ERK and actin. […]

calpain inhibitor III
IgE-dependent passive cutaneous anaphylaxis (Evans blue dye extravasation, absorbance at 620 nm) [1]: reduced IgE-dependent passive cutaneous anaphylaxis | IgE-dependent JNK phosphorylation in mast cells [2]: reduced IgE-dependent JNK phosphorylation in mast cells
